Test results: ChEMBL document CHEMBL3120061, “Novel spiroketal pyrrolidine GSK2336805 potently inhibits key hepatitis C virus genotype 1b mutants: from lead to clinical compound” (J Med Chem, 2014)

How the values were obtained:
[1] = tested on: Hepatitis C virus; test: Antiviral activity against Hepatitis C virus genotype 1b in Huh-luc/neo-ET replicon cells assessed as log10 reduction of HCV RNA at 3 times EC90 after 20 days by RNA reduction assay; format: functional, Hepacivirus hominis
[2] = Oral bioavailability in beagle dog; format: ADME, organism-based, Canis lupus familiaris; details: in vivo
[3] = In vivo clearance in beagle dog relative to hepatic blood flow; format: ADME, organism-based, Canis lupus familiaris, Liver; details: read-out: CLH
[4] = tested on: Hepatitis C virus; test: Antiviral activity against Hepatitis C virus genotype 1b in Huh-luc/neo-ET replicon cells assessed as log10 reduction of HCV RNA at 3 to 10 times EC90 after 5 days by RNA reduction assay; format: functional, Hepacivirus hominis
[5] = target: Albumin (Homo sapiens, UniProt P02768); test: Binding affinity to human serum albumin; format: ADME; details: isolated protein
Albumin, sequence (P02768 whole entry): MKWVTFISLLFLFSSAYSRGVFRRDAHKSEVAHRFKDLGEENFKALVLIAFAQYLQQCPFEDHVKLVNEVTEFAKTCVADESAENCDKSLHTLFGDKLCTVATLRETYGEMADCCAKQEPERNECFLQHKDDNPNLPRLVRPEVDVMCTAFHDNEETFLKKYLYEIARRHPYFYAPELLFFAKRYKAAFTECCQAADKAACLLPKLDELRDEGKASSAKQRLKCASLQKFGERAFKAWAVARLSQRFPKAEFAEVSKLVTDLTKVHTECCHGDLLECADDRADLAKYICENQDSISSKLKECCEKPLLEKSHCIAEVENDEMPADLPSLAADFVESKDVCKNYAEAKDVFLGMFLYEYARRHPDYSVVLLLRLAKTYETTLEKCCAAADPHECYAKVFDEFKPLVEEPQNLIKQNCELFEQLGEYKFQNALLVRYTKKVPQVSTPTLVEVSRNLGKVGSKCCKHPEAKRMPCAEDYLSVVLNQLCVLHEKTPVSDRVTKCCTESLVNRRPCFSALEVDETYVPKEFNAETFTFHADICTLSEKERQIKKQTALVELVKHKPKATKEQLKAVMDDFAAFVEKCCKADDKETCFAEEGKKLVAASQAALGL

[6] = Half life in dog hepatocytes; format: ADME, cell-based, Canis lupus familiaris, Hepatocyte
[7] = tested on: Hepatitis C virus; test: Antiviral activity against Hepatitis C virus genotype 1b harboring NS5A L31V mutant gene in Huh-luc/neo-ET replicon cells after 48 hrs by transient replicon mutant-based luciferase assay; format: functional, organism-based, Hepacivirus hominis
[8] = Binding affinity to human alpha1 AGP; format: ADME; details: isolated protein
[9] = tested on: Hepatitis C virus; test: Antiviral activity against Hepatitis C virus genotype 1 infected in patient assessed as decrease in log10 HCV RNA copies/ml at 120 mg administered as single dose; format: functional, Hepacivirus hominis
[10] = Half life in human hepatocytes; format: ADME, cell-based, Hepatocyte
[11] = tested on: Hepatitis C virus; test: Antiviral activity against Hepatitis C virus genotype 1b in Huh-luc/neo-ET replicon cells after 48 hrs by replicon-based luciferase assay; format: functional, organism-based, Hepacivirus hominis
[12] = Cytotoxicity against human HuhET cells infected with Hepatitis C virus up to 40 uM after 48 hrs by WST assay; format: cell-based
[13] = tested on: Hepatitis C virus; test: Antiviral activity against Hepatitis C virus genotype 1b in Huh-luc/neo-ET replicon cells assessed as log10 reduction of HCV RNA at 10 times EC90 after 20 days by RNA reduction assay; format: functional, Hepacivirus hominis
[14] = target: Cytochrome P450 2D6 (Homo sapiens, UniProt P10635); test: Inhibition of CYP2D6 (unknown origin); format: ADME
Cytochrome P450 2D6, sequence (P10635 whole entry): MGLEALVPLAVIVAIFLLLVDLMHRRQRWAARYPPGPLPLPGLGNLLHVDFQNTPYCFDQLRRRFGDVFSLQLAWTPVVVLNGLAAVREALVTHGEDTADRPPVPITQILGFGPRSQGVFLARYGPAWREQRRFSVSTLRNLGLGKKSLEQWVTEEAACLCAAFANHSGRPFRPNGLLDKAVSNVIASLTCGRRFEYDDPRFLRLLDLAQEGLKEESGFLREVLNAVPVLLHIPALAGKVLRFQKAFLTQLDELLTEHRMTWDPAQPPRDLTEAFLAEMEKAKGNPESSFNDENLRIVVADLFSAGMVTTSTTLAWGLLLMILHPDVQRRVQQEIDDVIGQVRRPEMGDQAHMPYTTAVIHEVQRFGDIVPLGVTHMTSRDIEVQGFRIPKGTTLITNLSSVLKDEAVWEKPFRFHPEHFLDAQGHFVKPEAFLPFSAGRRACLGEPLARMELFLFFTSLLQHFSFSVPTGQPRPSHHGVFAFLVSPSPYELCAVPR

[15] = Half life in cynomolgus monkey hepatocytes; format: ADME, cell-based, Macaca fascicularis, Hepatocyte
[16] = target: Cytochrome P450 2C19 (Homo sapiens, UniProt P33261); test: Inhibition of CYP2C19 (unknown origin); format: ADME
Cytochrome P450 2C19, sequence (P33261 whole entry): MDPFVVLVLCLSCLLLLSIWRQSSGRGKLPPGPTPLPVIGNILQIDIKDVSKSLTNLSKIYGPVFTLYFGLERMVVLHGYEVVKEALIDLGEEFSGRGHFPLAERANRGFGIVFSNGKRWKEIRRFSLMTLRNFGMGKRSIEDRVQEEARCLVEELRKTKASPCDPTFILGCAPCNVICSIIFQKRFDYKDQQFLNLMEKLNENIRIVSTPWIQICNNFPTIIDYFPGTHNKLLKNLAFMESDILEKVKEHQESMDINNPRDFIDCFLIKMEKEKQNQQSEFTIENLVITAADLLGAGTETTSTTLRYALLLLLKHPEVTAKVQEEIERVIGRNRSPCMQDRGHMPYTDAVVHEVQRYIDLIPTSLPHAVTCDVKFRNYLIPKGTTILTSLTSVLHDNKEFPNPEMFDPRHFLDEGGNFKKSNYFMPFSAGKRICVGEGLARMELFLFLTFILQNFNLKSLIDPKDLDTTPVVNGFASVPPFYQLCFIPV

[17] = Oral bioavailability in CD rat; format: ADME, organism-based; details: in vivo
[18] = target: Cytochrome P450 2C9 (Homo sapiens, UniProt P11712); test: Inhibition of CYP2C9 (unknown origin); format: ADME
Cytochrome P450 2C9, sequence (P11712 whole entry): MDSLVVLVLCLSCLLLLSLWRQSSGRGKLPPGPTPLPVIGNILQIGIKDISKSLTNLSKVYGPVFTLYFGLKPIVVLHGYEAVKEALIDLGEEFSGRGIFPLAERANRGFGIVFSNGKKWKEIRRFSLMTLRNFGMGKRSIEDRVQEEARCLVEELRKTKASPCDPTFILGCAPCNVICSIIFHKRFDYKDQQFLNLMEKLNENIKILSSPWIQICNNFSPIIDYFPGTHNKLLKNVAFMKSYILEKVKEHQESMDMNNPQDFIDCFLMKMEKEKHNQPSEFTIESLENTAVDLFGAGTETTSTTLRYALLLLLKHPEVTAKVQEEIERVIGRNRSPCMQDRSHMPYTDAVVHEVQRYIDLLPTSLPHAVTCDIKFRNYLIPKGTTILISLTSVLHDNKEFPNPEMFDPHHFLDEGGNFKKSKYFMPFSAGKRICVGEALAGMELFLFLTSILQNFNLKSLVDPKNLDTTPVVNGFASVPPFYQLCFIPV

[19] = tested on: Hepatitis C virus; test: Antiviral activity against Hepatitis C virus genotype 1 infected in patient assessed as decrease in log10 HCV RNA copies/ml at 1 mg administered as single dose; format: functional, Hepacivirus hominis
[20] = target: Cytochrome P450 3A4 (Homo sapiens, UniProt P08684); test: Inhibition of CYP3A4 (unknown origin); format: ADME
Cytochrome P450 3A4, sequence (P08684 whole entry): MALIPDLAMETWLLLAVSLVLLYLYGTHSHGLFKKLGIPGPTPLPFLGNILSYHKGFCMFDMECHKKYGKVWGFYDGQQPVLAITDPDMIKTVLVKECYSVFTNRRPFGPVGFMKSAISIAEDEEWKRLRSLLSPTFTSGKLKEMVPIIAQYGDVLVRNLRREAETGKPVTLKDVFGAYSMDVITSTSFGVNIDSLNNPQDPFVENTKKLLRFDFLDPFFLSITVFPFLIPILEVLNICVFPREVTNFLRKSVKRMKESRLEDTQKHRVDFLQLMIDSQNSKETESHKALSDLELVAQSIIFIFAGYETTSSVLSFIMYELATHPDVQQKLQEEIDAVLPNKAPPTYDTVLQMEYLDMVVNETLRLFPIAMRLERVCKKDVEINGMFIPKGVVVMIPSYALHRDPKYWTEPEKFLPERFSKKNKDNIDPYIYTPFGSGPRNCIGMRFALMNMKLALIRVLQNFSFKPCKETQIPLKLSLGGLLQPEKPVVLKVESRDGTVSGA

[21] = tested on: Hepatitis C virus; test: Ratio of EC50 for Hepatitis C virus genotype 1b harboring NS5A L31V mutant gene to EC50 for Hepatitis C virus genotype 1b harboring wild type NS5A in Huh-luc/neo-ET replicon cells by replicon-based luciferase assay; format: functional, Hepacivirus hominis
[22] = Half life in rat hepatocytes; format: ADME, cell-based, Hepatocyte
[23] = In vivo clearance in cynomolgus monkey relative to hepatic blood flow; format: ADME, organism-based, Macaca fascicularis, Liver; details: read-out: CLH
[24] = target: T1, Cytochrome P450 1A2 (Homo sapiens, UniProt P05177); test: Inhibition of CYP1A2 (unknown origin); format: ADME
T1 sequence (P05177 whole entry): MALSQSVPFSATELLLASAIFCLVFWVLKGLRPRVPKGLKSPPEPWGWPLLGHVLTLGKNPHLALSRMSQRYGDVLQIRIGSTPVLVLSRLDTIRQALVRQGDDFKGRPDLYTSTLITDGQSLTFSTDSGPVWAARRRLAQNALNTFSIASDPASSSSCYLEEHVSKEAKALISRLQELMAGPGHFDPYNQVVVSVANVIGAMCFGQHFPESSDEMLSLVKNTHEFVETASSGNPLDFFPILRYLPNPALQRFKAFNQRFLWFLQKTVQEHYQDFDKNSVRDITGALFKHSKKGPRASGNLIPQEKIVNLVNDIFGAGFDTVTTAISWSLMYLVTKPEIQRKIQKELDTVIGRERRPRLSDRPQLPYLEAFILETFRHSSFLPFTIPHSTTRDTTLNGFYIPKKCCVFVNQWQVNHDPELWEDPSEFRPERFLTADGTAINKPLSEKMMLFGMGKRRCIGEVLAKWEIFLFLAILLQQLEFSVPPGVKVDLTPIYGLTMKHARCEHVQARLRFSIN

[25] = tested on: Hepatitis C virus; test: Antiviral activity against Hepatitis C virus genotype 1a in Huh-luc/neo-ET replicon cells after 48 hrs by replicon-based luciferase assay; format: functional, organism-based, Hepacivirus hominis; details: subtype 1a
[26] = tested on: Hepatitis C virus; test: Antiviral activity against Hepatitis C virus genotype 1b harboring NS5A Y93H mutant gene in Huh-luc/neo-ET replicon cells after 48 hrs by transient replicon mutant-based luciferase assay; format: functional, organism-based, Hepacivirus hominis
[27] = Oral bioavailability in cynomolgus monkey; format: ADME, organism-based, Macaca fascicularis; details: in vivo
[28] = tested on: Hepatitis C virus; test: Antiviral activity against Hepatitis C virus genotype 1b harboring NS5A L28V mutant gene in Huh-luc/neo-ET replicon cells after 48 hrs by transient replicon mutant-based luciferase assay; format: functional, organism-based, Hepacivirus hominis
[29] = tested on: Hepatitis C virus; test: Ratio of EC50 for Hepatitis C virus genotype 1b harboring NS5A Y93H mutant gene to EC50 for Hepatitis C virus genotype 1b harboring wild type NS5A in Huh-luc/neo-ET replicon cells by replicon-based luciferase assay; format: functional, Hepacivirus hominis
[30] = In vivo clearance in CD rat relative to hepatic blood flow; format: ADME, organism-based, Liver; details: read-out: CLH

| Compound | FC [1] | FC [4] | EC50 [7] [nM] | EC50 [11] [nM] | FC [13] | bioavailability [17] [%] | Ratio EC50 [21] | EC50 [25] [nM] | EC50 [26] [nM] | EC50 [28] [nM] | Ratio EC50 [29] | clearance [30] [mL/min/kg] | other results |
| --- | --- | --- | --- | --- | --- | --- | --- | --- | --- | --- | --- | --- | --- |
| COC(=O)N[C@H](C(=O)N1CCC[C@H]1c1ncc(-c2ccc(-c3ccc(-c4cnc([C@@H]5CC6(CN5C(=O)[C@@H](NC(=O)OC)C(C)C)OCCO6)[nH]4)cc3)cc2)[nH]1)C(C)C | 3 | 2 | 0.0251 | 0.00794 | 4 | 13 | <=5 | 0.0398 | 0.0251 | 0.00316 | 3.2 | 60 | bioavailability [2]: 51%; clearance [3]: 8 mL/min/kg; Activity [5]: 94%; half-life [6]: ≥ 6 h; Activity [8]: 86%; FC [9]: 2.95; half-life [10]: ≥ 6 h; Activity [12]: Non-toxic; IC50 [14]: > 33000 nM; half-life [15]: ≥ 6 h; IC50 [16]: > 33000 nM; IC50 [18]: > 33000 nM; FC [19]: 0.996; IC50 [20]: > 33000 nM; half-life [22]: 2.67 h; clearance [23]: 9 mL/min/kg; IC50 [24]: > 33000 nM; bioavailability [27]: 13% |
| COC(=O)N[C@H](C(=O)N1CCC[C@H]1c1ncc(-c2ccc(-c3ccc(-c4cnc([C@@H]5CCCN5C(=O)[C@@H](NC(=O)OC)C(C)C)[nH]4)cc3)cc2)[nH]1)C(C)C [DACLATASVIR] | 2 | 2 | 0.126 | 0.01 | 3 |  | >=25 | 0.0398 | 0.316 | 0.00398 | >=30 |  |  |
| COC(=O)N[C@H](C(=O)N1CC2(C[C@H]1c1ncc(-c3ccc(-c4ccc(-c5cnc([C@@H]6CC7(CN6C(=O)[C@@H](NC(=O)OC)C(C)C)OCCO7)[nH]5)cc4)cc3)[nH]1)OCCO2)C(C)C |  |  | 0.0251 | 0.01 |  | 9 | <=5 | 0.0501 | 0.0126 | 0.0126 |  | 58 |  |
